Laboratory results published in PubChem BioAssay (NCI).
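Each compound was tested at five concentrations against cells in 96-well plates for 48 hours. At the TGI there is no net growth.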

Legend:
Assay in all cases: inhibition of tumour cell growth, NCI panel, 48 h
[1] = test system: TK-10 renal
[2] = test system: SK-MEL-2 melanoma
[3] = test system: SK-MEL-5 melanoma
[4] = test system: IGROV1 ovarian
[5] = test system: SF-295 CNS
[6] = test system: MDA-N
[7] = test system: CAKI-1 renal
[8] = test system: UACC-257 melanoma
[9] = test system: SK-OV-3 ovarian
[10] = test system: OVCAR-3 ovarian
[11] = test system: EKVX NSCLC
[12] = test system: COLO 205 colon
[13] = test system: KM12 colon
[14] = test system: NCI-H226 lung
[15] = test system: M14 melanoma
[16] = test system: HCT-116 colon

| Compound | TGI [1] | TGI [2] | TGI [3] | TGI [4] | TGI [5] | TGI [6] | TGI [7] | TGI [8] | TGI [9] | TGI [10] | TGI [11] | TGI [12] | TGI [13] | TGI [14] | TGI [15] | TGI [16] |
| --- | --- | --- | --- | --- | --- | --- | --- | --- | --- | --- | --- | --- | --- | --- | --- | --- |
| CCOC(=O)/C1=C(\C)N(Cc2ccccc2)C(=O)c2ccccc2C(=O)c2c(OC(C)=O)ccc(OC(C)=O)c21 | > 100 µM | > 100 µM | > 100 µM | > 100 µM | > 100 µM | > 100 µM | > 100 µM | > 100 µM | > 100 µM | 80.9 µM | 90.9 µM | > 100 µM | > 100 µM |  |  |  |
| Cc1c(N)c(C#N)c2n(C)c3ncccc3n2c1=O | > 100 µM | > 100 µM | > 100 µM |  | > 100 µM |  | > 100 µM | > 100 µM | > 100 µM | > 100 µM | > 100 µM | > 100 µM | > 100 µM | > 100 µM | > 100 µM | > 100 µM |
| CC(/C=C/c1ccccc1)=N\NC(=S)N/N=C(C)/C=C/c1ccccc1 | 46 µM | 50.3 µM | 42.8 µM | > 100 µM | 61.6 µM | > 100 µM |  | > 100 µM | > 100 µM | 66.5 µM | > 100 µM | > 100 µM |  | 63.1 µM | > 100 µM | > 100 µM |
| C=C(Cl)[C@](Cl)(CBr)CC[C@@H](Br)C(C)(C)Cl | 3.4 µM |  | 24.9 µM | 21.2 µM | 2.23 µM | 2.47 µM | 0.751 µM | 2.99 µM | 25.3 µM | 1.58 µM | 8.04 µM | 3.41 µM | 2.26 µM | 32.8 µM | 30.7 µM | 1.38 µM |
| Cc1ccc(S(=O)(=O)NC(=O)NC(CCCCN)C(=O)O)cc1 (stereo not given) | > 100 µM | > 100 µM | > 100 µM | > 100 µM | > 100 µM | > 100 µM |  | > 100 µM | > 100 µM |  |  | > 100 µM | > 100 µM |  | > 100 µM | > 100 µM |
| CC1CCC2C(C)C(OC(=O)CCC(=O)O)OC3OC4(C)CCC1C32OO4 (stereo not given) | 14.7 µM | 42.3 µM | 17.7 µM | 23.1 µM | > 100 µM | 38.7 µM | > 100 µM | > 100 µM | > 100 µM | > 100 µM | 32.7 µM | 6.71 µM | 23 µM |  | > 100 µM | 16.3 µM |
| COC(=O)C1=C(N)C2=C(N)Oc3ccccc3C2CC1=C(C#N)C#N (stereo not given) | 52 µM | > 100 µM | 52.7 µM | 48.4 µM | 90.2 µM |  | 72.2 µM | > 100 µM | > 100 µM | > 100 µM | 84.4 µM | 44.1 µM | 29.5 µM | > 100 µM | 43.3 µM | 99.2 µM |
| COC(=O)NCCc1[nH]nc2c1C(=O)C=C(Nc1ccccc1OC)C2=O | > 100 µM | > 100 µM | 27.1 µM | 65.3 µM | > 100 µM | 35.1 µM | 94.6 µM | 35.6 µM | > 100 µM | > 100 µM | > 100 µM | 61.6 µM | 64.4 µM |  | 62.9 µM | 38.1 µM |
| CC1=CP(=O)(OC(C)C)C=C(C)C1=C(Cl)Cl (stereo not given) | > 100 µM | 59 µM | > 100 µM | > 100 µM | > 100 µM |  |  | > 100 µM | 33.4 µM | > 100 µM | > 100 µM | 35 µM | 53.7 µM | 87.2 µM | > 100 µM | 70.5 µM |
| O=[N+]([O-])c1ccc(C2Nn3c(nnc3-c3cccc([N+](=O)[O-])c3)S2)cc1 (stereo not given) | > 100 µM | > 100 µM | > 100 µM | > 100 µM | > 100 µM |  | > 100 µM | > 100 µM | > 100 µM | > 100 µM | > 100 µM | > 100 µM | > 100 µM | > 100 µM | > 100 µM | > 100 µM |
| CC(=O)c1ccc(NC(=O)C(=O)CC(=O)c2sc(-n3nc(-c4ccccc4)cc3-c3ccccc3)nc2C)cc1 | > 100 µM | > 100 µM |  | > 100 µM | > 100 µM |  | > 100 µM | > 100 µM | > 100 µM | > 100 µM | > 100 µM | > 100 µM | > 100 µM | > 100 µM | > 100 µM | > 100 µM |
| CC12CCC(=O)N1[C@@H](c1ccccc1)[C@@H](c1ccccc1)O2 (stereo not given in full) |  | > 100 µM | > 100 µM | > 100 µM | > 100 µM |  | > 100 µM | > 100 µM | > 100 µM | > 100 µM |  | > 100 µM | > 100 µM | > 100 µM | > 100 µM | > 100 µM |
| COc1cc2c(cc1OC)C1CN3CCCC3C(O)C1c1cc(OC)c(OC)cc1-2 (stereo not given) | > 100 µM | > 100 µM | > 100 µM | > 100 µM | > 100 µM | > 100 µM | > 100 µM | > 100 µM | > 100 µM |  | > 100 µM | > 100 µM | > 100 µM |  | > 100 µM | > 100 µM |
| COC(=O)c1ccccc1/C=C1\Cc2ccc3c(c2C1=O)CCC3 | > 100 µM |  | > 100 µM | > 100 µM | > 100 µM | > 100 µM | > 100 µM | > 100 µM | > 100 µM | > 100 µM | > 100 µM | > 100 µM | > 100 µM | > 100 µM |  | > 100 µM |
| Cn1c(=O)oc2cc(C(O)CN3CCN(Cc4ccc5c(c4)OCO5)CC3)ccc21 (stereo not given) | > 100 µM |  |  | > 100 µM | > 100 µM |  | > 100 µM | > 100 µM | > 100 µM | > 100 µM | > 100 µM | > 100 µM | > 100 µM | > 100 µM | > 100 µM | > 100 µM |
